Earlier results in patent US6709866B2, “Methods for enhancing survival of a neuron” (Aegera Therapeutics, Inc., priority 1996, dated 2004).

How the values were obtained:
[1] = tested on: primary hippocampal, cortical and septal cultures; details: Cheng et al. 1994
[2] = tested on: hippocampal cultures; details: 100 pM
[3] = tested on: motoneurons; details: literature

**Q.** For O=c1c(-c2ccc(O)cc2)coc2cc(O)cc(O)c12 [genistein], which “effect on the neuroprotective effects of K252-like compounds” value [1] is on record?
**A.** blocked

**Q.** Which “tyrosine phosphorylation of multiple proteins (40 to 200 kDa)” value [2] does the source give for C[C@]12O[C@H](C[C@]1(O)C(=O)O)n1c3ccccc3c3c4c(c5c6ccccc6n2c5c31)CNC4=O [K252b] here?
**A.** enhance tyrosine phosphorylation

**Q.** With CCSCc1ccc2c(c1)c1c3c(c4c5cc(CSCC)ccc5n5c4c1n2[C@H]1C[C@](O)(C(=O)OC)[C@]5(C)O1)CNC3=O [CEP1347] as the molecule, how does the “motoneuron death and loss of ChAT in vivo” value [3] read?
**A.** prevents developmentally programmed motoneuron death and loss of ChAT in adult motoneurons
